Measurements reported in patent US20110059869A1, “Method for Increasing Enzymatic Reactivity” (RIKEN, priority 2008, published 2011).

Assays:
Assay type in all cases: biochemical
[1] = tested on: E. coli DNA ligase, E. coli DNA polymerase I, E. coli RNaseH; assay: Double-stranded cDNA synthesis (Gubler-Hoffman method) on cDNA/RNA hybrid adsorbed to streptavidin beads; conditions: 0.6 M trehalose, 3 hours at 16° C.
Description: RNA was reverse transcribed with Unique oligo-dT having various restriction enzyme sites. The cDNA/RNA hybrids obtained were used while still adsorbed to the beads to conduct a double-strand synthesis reaction by the Gubler-Hoffman method as set forth below.
A 15 ug quantity of 5′ end biotin-labeled primer (Seq. ID No. 3) for reverse transcription was employed for 12 ug of total RNA (mouse embryo, 17.5, female). Reverse transcription reaction solution (1× GC buffer (Takara), 0.3 mM dNTP mix, saturated sorbitol/trehalose solution 30 uL, M-MLV 3,000 units) was added α[32P]dGTP was added, and the mixture was reacted for 30 minutes at 42° C., 10 minutes at 50° C., and 10 minutes at 56° C. Following reaction with proteinase K, the mixture was precipitated from CTAB/urea and redissolved in 7 M Gu-HCl. EtOH precipitation was then conducted. […]
Streptavidin beads on which was adsorbed cDNA/RNA hybrid were washed once with double-stranded synthesis-use reaction buffer ([…], Invitrogen). […] The mixture was washed three times with 1× binding buffer and measured with a liquid scintillation counter. The synthesis rate of double-stranded cDNA and the yield were calculated (Scheme 1).

restriction enzyme PstI = assay: PstI cleavage of DNA fragments I, II, III in a uniform liquid phase system; conditions: 0.6 M trehalose present or not, three hours at 37° C.
Description: In the same manner as in 7 above, the three biotin-labeled DNA fractions I, II, and III (Seq. ID Nos. 4 to 6) were each cleaved at the restriction enzyme PstI site and the DNA fragments of various sizes that were released were detected. Two types of reaction solution (1× PstI buffer, 1× BSA, restriction enzyme 40 units) were prepared: a trehalose (+) system with a final D(+)-trehalose concentration of 0.6 M, and a trehalose (−) system to which no trehalose was added. Each of the reaction solutions was admixed and reacted for three hours at 37° C. Cleavage was conducted with restriction enzyme. The DNA fragments of various sizes that were released were reacted with proteinase K, treated with phenol chloroform, and precipitated from ethanol. The precipitate of DNA fragments obtained was dissolved in 1× TE (pH 7.5) and analyzed with Bioanalyzer DNA 1000 assay (Agilent Technologies) (FIGS. 15 and 16).

DNA polymerase = assay: 454 sequencing system, emulsion PCR on beads
Description: In the 454 sequencing system (Scheme 10), a DNA template was adsorbed onto spherical beads, immobilized, and subjected to enveloped amplification in a water-in-oil emulsion (emulsion PCR). Accordingly, the change in the sequencing analysis level when trehalose was added in emulsion PCR was examined.
In emulsion PCR, DNA is bonded by complementarily interaction with oligoprimer immobilized on beads and enveloped in a water-in-oil emulsion to form microreactors each comprised of a single bead and a single DNA fragment. An amplification reaction based on the DNA polymerase results in the amplification of each DNA fragment into several million copies per bead. Trehalose was added to a final concentration of 0.6 M to the reaction solution and the amplification reaction was conducted to examine the effect on the sequence analysis results (Scheme 11).
The samples employed were DNA fragments that had been obtained by PCR amplification of cDNA obtained by reverse transcription of short RNA (FIG. 11). The results obtained by this reaction are shown in FIGS. 12, 13, and 14, as well as in Table 2.
In the 454 sequencing system described in 11 above, trehalose was added to a final concentration of […] to the reaction solution, an amplification reaction was conducted, and the effect on the level of sequencing was examined.

[2] = tested on: XhoI, PstI, HindIII, and NotI; assay: Various restriction enzyme reactions on biotin-labeled cDNA immobilized on streptavidin beads; conditions: 0.6 M trehalose vs trehalose (−); 3 hours at 37° C.; all enzymes
Description: Streptavidin beads on which were adsorbed double-stranded cDNA were washed with various restriction enzyme buffers. The restriction enzymes employed were XhoI, PstI, HindIII, and NotI. Two reaction solutions (various 1× buffers, 1× BSA based on enzyme, restriction enzyme 40 units) were prepared: a trehalose (+) system to which D(+)-trehalose was added to a final concentration of 0.6 M, and a trehalose (−) system, to which no trehalose was added. The reaction solutions were admixed to beads that had been washed and the mixtures were reacted for 3 hours at 37° C. A magnetic stand was used to recover (aggregate) the beads, cleavage was conducted with restriction enzyme, and the supernatant containing the cDNA that had been released was measured with a liquid scintillation counter. The cDNA yield and restriction enzyme efficiency were calculated from the RI count values (Scheme 2).

[3] = tested on: ligation enzymatic reaction solution of a SOLID system 2.0; assay: Sequencing reaction in a SOLID sequencing system; conditions: 0.3 M trehalose vs none
Description: D(+)-trehalose was added to the ligation enzymatic reaction solution of a SOLID system 2.0 and the effects were measured. The experiment was conducted at a final D(+)-trehalose concentration of 0.3 M. The noise to signal ratio (N/S ratio) of each cycle was employed for comparison. The N/S ratio was obtained by dividing the second brightest fluorescence intensity by the brightest fluorescence intensity.
The D(+)-trehalose employed was D(+)-trehalose dihydrate (201-02253 reagent grade) (Wako). A SOLiD™ fragment library sequencing kit v2 (4400466) was employed for sequencing with the SOLID system (Applied Biosystems). The sample employed as a SOLiD™ DH10B fragment library control kit (4391889).
Probe Mixes A and B and bridge probe, prepared with the reagents contained in a SOLiD™ fragment library sequence kit v2 (4400466) and adjusted to a D(+)-trehalose (90208 BioChemika, 99.5% (HPLC)) (Fluka) concentration of 1.7 M, were added to each sequence primer in the quantities indicated below.
The operation was conducted according to the manufacturer's protocol following addition.

[4] = 0.3 M trehalose in emulsion PCR vs none
[5] = 0.6 M trehalose in emulsion PCR
[6] = trehalose 0.6 M in emulsion PCR, Region 2

SMILES: OC[C@H]1O[C@H](O[C@H]2O[C@H](CO)[C@@H](O)[C@H](O)[C@H]2O)[C@H](O)[C@@H](O)[C@@H]1O [trehalose, D(+)-trehalose]
- double-stranded cDNA synthesis rate, increase over trehalose (−) conditions [1]: 1.25 fold
- quantity of the released DNA fragments recovered (restriction enzyme PstI): no change
- long fragments (sequence length) (DNA polymerase; [4]): increase in long fragments
- number of sequences (DNA polymerase; [4]): increased the number of sequences
- short fragments (sequence length) (DNA polymerase; [4]): reduction in short fragments
- DNA amplification wells (DNA polymerase; 0.6 M trehalose (+) compared to trehalose (−)): increasing the DNA amplification wells
- number of sequences and size of the regions that were decoded (DNA polymerase; 0.6 M trehalose (+) relative to trehalose (−)): increasing the number of sequences and the size of the regions that were decoded
- number of sequences read in sample DNA, increase relative to no trehalose (DNA polymerase; [5]): about 1.6 fold
- target regions contained in DNA fragments (tags) analyzed (DNA polymerase; [5]): more target regions were contained
- Keypass Wells (DNA polymerase; [6]): 341,546
- Passed Filter Wells (DNA polymerase; [6]): 207,398
- Raw Wells (DNA polymerase; [6]): 364,898
- quantity of released cDNA recovered [2]: higher quantity was recovered
- noise to signal ratio (N/S ratio) with each cycle [3]: reduced the rise in noise
